Results taken from US20260028338A1, “HETEROBIFUNCTIONAL COMPOUNDS AND METHODS OF TREATING DISEASE” (Halda Therapeutics OpCo, Inc., priority 2023, published 2026).

What was measured:
[1] = target: T1, His-tagged BRD4 BD1 (46-168) (Homo sapiens, UniProt O60885); experiment: AlphaLISA competition assay, BRD4 BD1; format: binding; settings: BRD4-BD1, AlphaLISA competition with biotinylated histone H4K5/8/12/16(Ac) peptide, 10 nM
T1 construct: His-tagged BRD4 BD1 (46-168) and biotinylated histone H4K5/8/12/16(Ac) peptide
Description: (§1) Exemplary compounds were tested for ability to bind to bromodomain-containing protein 4 (BRD4).
(§2) Compounds were tested using a developed AlphaLISA competition assay. Briefly, His-tagged BRD4 BD1 (46-168) and biotinylated histone H4K5/8/12/16(Ac) peptide (ANASPEC, AS-64989-1) were incubated in 20 mM HEPES pH 7.5, 100 mM NaCl, 0.5 mM TCEP, 0.1% BSA, 0.02% CHAPS at a final concentration of 10 nM. Test compounds were serially diluted ten times in the same buffer and were added to the BRD4-peptide mixture for 1 h incubation at room temperature. Following incubation, Streptavidin AlphaLISA acceptor beads (PerkinElmer, AL125M) were added to BRD4-peptide-compound samples to a final concentration of 0.01 mg/mL for a 0.5 h incubation at room temperature in the dark. Following incubation, the same amount of Nickel Chelate Alpha donor beads (PerkinElmer, AS101M) were added to the samples for a final 1 h incubation. The AlphaLISA signals were measured using an EnVision plate reader (PerkinElmer). The data were uploaded to Screening Ultra (Dotmatics) to determine the half-maximal inhibitory concentration (IC50) for each test compound.

[2] = test system: T-Rex 293 cell line SC cells having increased expression of BCL6 protein; experiment: Cellular growth inhibition assay, T-Rex 293 SC cells with doxycycline (CellTiter-Glo); format: cell-based; settings: T-Rex 293 SC cells with 10 ng/mL doxycycline (increased BCL6 expression), 72 hours, CellTiter-Glo 2.0
Description: (§3) Exemplary compounds were tested for ability to inhibit the proliferation of the following types of cells: (i) a T-Rex 293 cell line having increased expression of BCL6 protein due to exposure of doxycycline and (ii) a T-Rex 293 cell line lacking increased expression of BCL6 protein.
(§4) The following types of cells were prepared for this experiment: (i) a T-Rex 293 cell line having increased expression of BCL6 protein due to exposure to doxycycline and (ii) a T-Rex 293 cell line lacking increased expression of BCL6 protein. Ability of the test compounds to inhibit proliferation of the foregoing cell types was evaluated according to the procedures set forth below.
(§5) The doxycycline-inducible BCL6 protein expressing cell line was established using the following protocol: T-Rex 293 cells were purchased from Invitrogen (Cat #R71007) and transfected using Lipofectamine 2000 with the wild-type BCL6 protein sequence cloned into the pcDNA4/TO vector. Transfected cells were selected using 400 μg/mL Zeocin (Invitrogen Cat #R25001). Following selection, single clones were raised and maintained in Dulbecco's Modified Eagle Medium (DMEM) supplemented with 10% w/w Tetracycline-free fetal bovine serum (FBS) and 250 μg/mL Zeocin. Clones were analyzed for expression of BCL6 protein in the presence and absence of 10 ng/mL doxycycline (Sigma Cat #D9891), and a single doxycycline-inducible clone (hereinafter “SC”) was selected for use in downstream assays.
(§6) The SC cells were seeded on poly-D-lysine coated, black clear-bottom 384-well plates at 2500/well, in 25 μL Dulbecco's Modified Eagle Medium (DMEM) supplemented with 10% w/w Tetracycline-free fetal bovine serum (FBS) and 1% w/w pen-strep, with or without 10 ng/mL doxycycline. Pen-Strep is a commercially available mixture of penicillin G and streptomycin, which is used in mammalian cell culture media to prevent bacterial contamination. Dulbecco's Modified Eagle Medium (DMEM) supplemented with 10% w/w Tetracycline-free fetal bovine serum (FBS) and 1% w/w pen-strep, with or without 10 ng/mL doxycycline is herein referred to as Treatment Medium. Following seeding of cells in the plates, the plates were spun at 300×g for 30 seconds, then equilibrated to room temperature for 30 minutes, and then deposited in a humidified tissue culture incubator maintained at 37° C. with 5% CO2.
(§7) At 24 hours after seeding of the cells, dilutions of test compound were prepared in DMSO and dissolved in Treatment Medium, to achieve a final DMSO concentration of 0.5% w/w, thereby providing the Test Compound Solution. A 25 μL aliquot of the Test Compound Solution was added to cells in the well plates. An equal volume of a solution containing DMSO and Treatment Medium was used as a negative control. Following treatment of cells with Test Compound Solution or said equal volume of a solution containing DMSO and Treatment Medium, the plates were spun at 300×g for 30 seconds, and then left in an incubator for 72 hours.
(§8) At the end of the treatment duration, cell viability was quantified with CellTiter-Glo 2.0 reagent (Promega Cat #G9243). For this purpose, plates were equilibrated to room temperature for 30 minutes, and then 25 μL of CellTiter-Glo 2.0 reagent was added to cells in the plate wells. Plates were then agitated on a shaker for two minutes at 500 rpm and subsequently incubated at room temperature for 10 minutes. Following incubation, the plates were spun at 3000×g for 30 seconds, then sealed with an optical adhesive cover, and luminescence readings were measured with an EnVision Plate Reader (Perkin Elmer).
(§9) Data was normalized using zero luminescence for baseline. A four-parameter non-linear regression curve fit was applied to dose-response data in GraphPad Prism data analysis software to determine the half-maximal growth inhibitory concentration (GI50) for each test compound.

[3] = target: T2, His-tagged BRD4 BD2 (333-460) (Homo sapiens, UniProt O60885); experiment: AlphaLISA competition assay, BRD4 BD2; format: binding; settings: BRD4-BD2, AlphaLISA competition with biotinylated histone H4K5/8/12/16(Ac) peptide, 20 nM
T2 construct: The same assay was developed for His-tagged BRD4 BD2 (333-460) and biotinylated histone H4K5/8/12/16(Ac) peptide
Description: as §1, §2
The same assay was developed for His-tagged BRD4 BD2 (333-460) and biotinylated histone H4K5/8/12/16(Ac) peptide at a final concentration of 20 nM.

[4] = test system: T-Rex 293 cell line SC cells lacking increased expression of BCL6 protein; experiment: Cellular growth inhibition assay, T-Rex 293 SC cells without doxycycline (CellTiter-Glo); format: cell-based; settings: T-Rex 293 SC cells not exposed to doxycycline (no increased BCL6 expression), 72 hours, CellTiter-Glo 2.0
Description: as §3, §4, §5, §6, §7, §8, §9

[5] = test system: Farage cell line; experiment: Cellular growth inhibition assay, Farage cells (CellTiter-Glo); format: cell-based; settings: Farage cell line (DLBCL), 72 hours, CellTiter-Glo 2.0
Description: Exemplary compounds were tested for ability to inhibit the proliferation of Su-DHL-4 and Farage cells. Su-DHL-4 and Farage cells are commercially available diffuse large B cell lymphoma cell lines (DLBCL).
Su-DHL-4 and Farage cells were purchased from American Type Cell Culture (ATCC Cat #CRL-2957/CRL-2630) and then seeded on poly-D-lysine coated, black clear-bottom 384-well plates at 3000/well in 25 μL Roswell Park Memorial Institute media (RPMI-1640) supplemented with 10% w/w Fetal bovine serum (FBS) and 1% w/w Pen-Strep. Pen-Strep is a commercially available mixture of penicillin G and streptomycin, which is used in mammalian cell culture media to prevent bacterial contamination. Roswell Park Memorial Institute media (RPMI-1640) supplemented with 10% w/w fetal bovine serum (FBS), and 1% w/w Pen-Strep is herein referred to as Treatment Medium. Following seeding of cells in the plates, the plates were spun at 300×g for 30 seconds, then equilibrated to room temperature for 30 minutes, and then deposited in a humidified tissue culture incubator maintained at 37° C. with 5% CO2.
as §7, §8, §9

IC50 [1] [nM]	IC50 [3] [nM]	Structure (SMILES)	GI50 [2] [nM]	GI50 [4] [nM]	GI50 [5] [nM]
5 to 50	< 5	CCS(=O)(=O)Nc1ccc(Oc2ccc(OCCN3CCN(CCC4CCN(c5ncc(Cl)c(Nc6ccc7c(c6)cc(OCC(=O)NC)c(=O)n7C)n5)CC4)CC3)cc2)c(-c2cn(C)c(=O)c3[nH]ccc23)c1 [Compound I-14]	< 500	500 to 1500	
5 to 50	5 to 50	CCS(=O)(=O)Nc1ccc(Oc2cccc(OCCN3CCN(CCC4CCN(c5ncc(Cl)c(Nc6ccc7c(c6)cc(OCC(=O)NC)c(=O)n7C)n5)CC4)CC3)c2)c(-c2cn(C)c(=O)c3[nH]ccc23)c1 [Compound I-13]	< 500	< 500	
5 to 50	5 to 50	CCS(=O)(=O)Nc1ccc(Oc2cccc(OCCN3CCN(CCCC4CCN(c5ncc(Cl)c(Nc6ccc7c(c6)cc(OCC(=O)NC)c(=O)n7C)n5)CC4)CC3)c2)c(-c2cn(C)c(=O)c3[nH]ccc23)c1 [Compound I-11]	< 500	< 500	
5 to 50	< 5	CCS(=O)(=O)Nc1ccc(Oc2ccc(CCN3CCN(CC4CCN(c5ncc(Cl)c(Nc6ccc7c(c6)cc(OCC(=O)NC)c(=O)n7C)n5)CC4)CC3)cc2)c(-c2cn(C)c(=O)c3[nH]ccc23)c1 [Compound I-16, 2-[[6-[[5-chloro-2-[4-[[4-[2-[4-[4-(ethylsulfonylamino)-2-(6-methyl-7-oxo-1H-pyrrolo[2,3-c]pyridin-4-yl)phenoxy]phenyl]ethyl]piperazin-1-yl]methyl]-1-piperidyl]pyrimidin-4-yl]amino]-1-methyl-2-oxo-3-quinolyl]oxy]-N-methyl-acetamide]	< 500	< 500	
5 to 50	5 to 50	CCS(=O)(=O)Nc1ccc(Oc2ccc(OCCN3CCN(CCCC4CCN(c5ncc(Cl)c(Nc6ccc7c(c6)cc(OCC(=O)NC)c(=O)n7C)n5)CC4)CC3)cc2)c(-c2cn(C)c(=O)c3[nH]ccc23)c1 [Compound I-12]	< 500	< 500	
5 to 50	5 to 50	CCS(=O)(=O)Nc1ccc(Oc2cccc(CCN3CCN(CC4CCN(c5ncc(Cl)c(Nc6ccc7c(c6)cc(OCC(=O)NC)c(=O)n7C)n5)CC4)CC3)c2)c(-c2cn(C)c(=O)c3[nH]ccc23)c1 [Compound I-17]	> 3000	< 500	

More lines, now with the values behind:

Structure (SMILES)	IC50 [1] [nM]	IC50 [3] [nM]	GI50 [2] [nM]	GI50 [4] [nM]	GI50 [5] [nM]
CCS(=O)(=O)Nc1ccc(Oc2cccc(OCCCCN3CCN(CC4CCN(c5ncc(Cl)c(Nc6ccc7c(c6)cc(OCC(=O)NC)c(=O)n7C)n5)CC4)CC3)c2)c(-c2cn(C)c(=O)c3[nH]ccc23)c1 [Compound I-9]	5 to 50	5 to 50	< 500	< 500	
CCS(=O)(=O)Nc1ccc(Oc2cccc(OCCCN3CCN(CC4CCN(c5ncc(Cl)c(Nc6ccc7c(c6)cc(OCC(=O)NC)c(=O)n7C)n5)CC4)CC3)c2)c(-c2cn(C)c(=O)c3[nH]ccc23)c1 [Compound I-6]	5 to 50	5 to 50	< 500	< 500	
CCS(=O)(=O)Nc1ccc(Oc2ccc(OCCN3CCN(CC4CCN(c5ncc(Cl)c(Nc6ccc7c(c6)cc(OCC(=O)NC)c(=O)n7C)n5)CC4)CC3)cc2)c(-c2cn(C)c(=O)c3[nH]ccc23)c1 [Compound I-7]	5 to 50	5 to 50	< 500	< 500	
CNC(=O)COc1cc2cc(Nc3nc(N4CCC(CN5CCC6(CC5)CC(CC5CC(Oc7ccc(C(C)(C)O)cc7-c7cn(C)c(=O)c8[nH]ccc78)C5)C6)CC4)ncc3Cl)ccc2n(C)c1=O (stereo not shown) [Compound I-53]			< 500	< 500	< 500
CCS(=O)(=O)Nc1ccc(Oc2ccc(OCCCCN3CCN(CC4CCN(c5ncc(Cl)c(Nc6ccc7c(c6)cc(OCC(=O)NC)c(=O)n7C)n5)CC4)CC3)cc2)c(-c2cn(C)c(=O)c3[nH]ccc23)c1 [Compound I-10]	5 to 50	< 5	< 500	< 500	
CNC(=O)COc1cc2cc(Nc3nc(N4CCC5(CC4)CC(Oc4ccc(C6=N[C@@H](C)c7nnc(C)n7-c7sc(C)c(C)c76)cc4)C5)ncc3Cl)ccc2n(C)c1=O [Compound I-28, 2-[[6-[[5-chloro-2-[2-[4-[(9S)-4,5,9,13-tetramethyl-3-thia-1,8,11,12-tetrazatricyclo[8.3.0.02,6]trideca-2 (6),4,7,10,12-pentaen-7-yl]phenoxy]-7-azaspiro[3.5]nonan-7-yl]pyrimidin-4-yl]amino]-1-methyl-2-oxo-3-quinolyl]oxy]-N-methyl-acetamide]			< 500	< 500	< 500
CCS(=O)(=O)Nc1ccc(Oc2ccc(OCCCN3CCN(CC4CCN(c5ncc(Cl)c(Nc6ccc7c(c6)cc(OCC(=O)NC)c(=O)n7C)n5)CC4)CC3)cc2)c(-c2cn(C)c(=O)c3[nH]ccc23)c1 [Compound I-8]	5 to 50	5 to 50	< 500	< 500	
CNC(=O)COc1cc2cc(Nc3nc(N4CCC(CN5CCC6(CC5)CC(CC5CC(Oc7ccc(C(C)(C)O)cc7-c7cn(C)c(=O)c8[nH]ccc78)C5)C6)CC4)ncc3Cl)ccc2n(C)c1=O (stereo not shown) [Compound I-54]			< 500		< 500
